Experiments:
ROCK2 = ROCK2 (Homo sapiens (Human), UniProt O75116); test: ROCK assay (LABCHIP peptide phosphorylation), ROCK2; format: biochemical; conditions: 5 μM ATP, 1.5 μM peptide substrate
ROCK1 = ROCK1 (Homo sapiens (Human), UniProt Q13464); test: ROCK assay (LABCHIP peptide phosphorylation), ROCK1; format: biochemical; conditions: 5 μM ATP, 1.5 μM peptide substrate; read-out: ROCK1 IC50
Sequence of ROCK1 (Q13464 whole entry, species assumed): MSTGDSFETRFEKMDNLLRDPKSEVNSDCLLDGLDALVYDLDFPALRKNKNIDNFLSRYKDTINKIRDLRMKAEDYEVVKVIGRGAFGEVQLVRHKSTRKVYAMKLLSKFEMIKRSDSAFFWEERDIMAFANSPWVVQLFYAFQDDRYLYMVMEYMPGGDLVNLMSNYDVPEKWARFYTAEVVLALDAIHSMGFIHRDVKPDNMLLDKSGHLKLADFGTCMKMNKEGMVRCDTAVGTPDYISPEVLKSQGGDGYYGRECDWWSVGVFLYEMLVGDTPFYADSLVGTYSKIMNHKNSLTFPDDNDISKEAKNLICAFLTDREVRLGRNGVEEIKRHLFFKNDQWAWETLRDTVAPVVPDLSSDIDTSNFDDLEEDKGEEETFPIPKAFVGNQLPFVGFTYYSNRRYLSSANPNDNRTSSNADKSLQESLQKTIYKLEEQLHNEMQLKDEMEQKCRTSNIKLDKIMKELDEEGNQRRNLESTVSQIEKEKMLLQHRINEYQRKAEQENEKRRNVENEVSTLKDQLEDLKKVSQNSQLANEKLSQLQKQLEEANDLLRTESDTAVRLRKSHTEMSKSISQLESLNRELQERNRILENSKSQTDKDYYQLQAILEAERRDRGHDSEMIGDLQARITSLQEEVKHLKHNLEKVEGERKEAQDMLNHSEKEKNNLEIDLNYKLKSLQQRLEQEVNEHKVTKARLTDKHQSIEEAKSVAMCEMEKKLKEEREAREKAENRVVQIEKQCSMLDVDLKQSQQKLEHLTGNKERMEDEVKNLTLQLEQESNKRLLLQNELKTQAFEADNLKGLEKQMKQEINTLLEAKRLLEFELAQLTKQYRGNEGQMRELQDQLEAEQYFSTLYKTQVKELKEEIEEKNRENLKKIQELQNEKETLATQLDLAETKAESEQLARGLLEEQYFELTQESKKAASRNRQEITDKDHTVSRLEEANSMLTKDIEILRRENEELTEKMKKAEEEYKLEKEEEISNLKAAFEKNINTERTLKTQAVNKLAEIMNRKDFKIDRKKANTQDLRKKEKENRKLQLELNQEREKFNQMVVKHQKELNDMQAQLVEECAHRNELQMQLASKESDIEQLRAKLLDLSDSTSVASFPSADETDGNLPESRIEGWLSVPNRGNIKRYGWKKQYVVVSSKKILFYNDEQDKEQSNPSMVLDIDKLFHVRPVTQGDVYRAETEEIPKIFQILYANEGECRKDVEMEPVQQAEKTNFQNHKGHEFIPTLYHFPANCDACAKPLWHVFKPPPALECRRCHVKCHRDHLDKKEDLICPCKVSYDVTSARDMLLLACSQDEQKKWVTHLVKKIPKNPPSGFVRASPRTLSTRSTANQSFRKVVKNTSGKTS

Sequence of ROCK2 (O75116 whole entry, species assumed): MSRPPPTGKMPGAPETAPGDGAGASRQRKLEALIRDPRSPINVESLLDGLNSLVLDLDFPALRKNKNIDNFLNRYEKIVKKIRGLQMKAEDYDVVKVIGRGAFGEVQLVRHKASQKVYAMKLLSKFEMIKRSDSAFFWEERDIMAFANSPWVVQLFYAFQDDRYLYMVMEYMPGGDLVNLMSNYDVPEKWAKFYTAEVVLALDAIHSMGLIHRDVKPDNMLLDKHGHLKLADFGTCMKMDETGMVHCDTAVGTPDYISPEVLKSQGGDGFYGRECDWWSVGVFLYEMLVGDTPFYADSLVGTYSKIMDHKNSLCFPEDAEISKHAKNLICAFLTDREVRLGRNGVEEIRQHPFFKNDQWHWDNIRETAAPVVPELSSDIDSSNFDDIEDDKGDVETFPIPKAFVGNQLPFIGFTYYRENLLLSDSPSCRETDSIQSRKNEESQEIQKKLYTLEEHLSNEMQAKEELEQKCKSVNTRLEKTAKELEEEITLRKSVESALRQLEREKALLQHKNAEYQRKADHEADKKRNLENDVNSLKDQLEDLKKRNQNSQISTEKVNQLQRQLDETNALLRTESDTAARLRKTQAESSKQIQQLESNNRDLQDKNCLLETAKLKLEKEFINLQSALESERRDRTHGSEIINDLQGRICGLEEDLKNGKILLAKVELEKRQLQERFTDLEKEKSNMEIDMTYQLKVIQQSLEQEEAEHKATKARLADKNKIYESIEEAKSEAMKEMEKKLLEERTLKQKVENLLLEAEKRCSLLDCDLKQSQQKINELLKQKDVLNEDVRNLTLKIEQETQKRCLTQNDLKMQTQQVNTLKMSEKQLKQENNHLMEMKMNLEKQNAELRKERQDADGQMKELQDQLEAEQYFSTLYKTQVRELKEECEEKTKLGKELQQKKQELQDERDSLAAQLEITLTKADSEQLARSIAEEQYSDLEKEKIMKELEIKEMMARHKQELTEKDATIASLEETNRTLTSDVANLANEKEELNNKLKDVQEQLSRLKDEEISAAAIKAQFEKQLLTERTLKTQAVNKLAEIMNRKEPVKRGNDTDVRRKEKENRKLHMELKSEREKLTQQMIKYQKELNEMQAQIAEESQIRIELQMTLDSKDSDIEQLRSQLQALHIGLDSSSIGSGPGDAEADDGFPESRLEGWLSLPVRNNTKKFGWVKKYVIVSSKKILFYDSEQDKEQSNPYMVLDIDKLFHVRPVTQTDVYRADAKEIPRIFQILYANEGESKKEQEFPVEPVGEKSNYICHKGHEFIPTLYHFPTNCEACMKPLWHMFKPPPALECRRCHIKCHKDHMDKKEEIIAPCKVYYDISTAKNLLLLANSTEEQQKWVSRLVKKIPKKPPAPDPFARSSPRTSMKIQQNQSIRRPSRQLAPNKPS

Row | SMILES | IC50 (ROCK2) | IC50 (ROCK1)
1 | CN1CCC(Oc2ccc3c(c2)N(C(=O)Cc2ccc(-c4n[nH]c(=O)c5ccccc45)cc2)CC3)CC1 [Example 282, 4-[4-(2-{6-[(1-methylpiperidin-4-yl)oxy]-2,3-dihydro-1H-indol-1-yl}-2-oxoethyl)phenyl]-1,2-dihydrophthalazin-1-one] | 0.1 to 100 nM | 101 to 1000 nM
2 | Cc1cc(CC(=O)N2Cc3ccccc3C2)ccc1-c1c[nH]c(=O)c2ccccc12 [Example 263, 4-(4-(2-(Isoindolin-2-yl)-2-oxoethyl)-2-methylphenyl)isoquinolin-1(2H)-one] | 0.1 to 100 nM | 101 to 1000 nM
3 | CN(C)c1cccc(C(=O)Nc2ccc(-c3n[nH]c(=O)c4ccccc34)cc2)c1 [Example 66, 3-(dimethylamino)-N-[4-(4-oxo-3,4-dihydrophthalazin-1-yl)phenyl]benzamide] | 0.1 to 100 nM | 0.1 to 100 nM
4 | O=C(Nc1ccc(-c2n[nH]c(=O)c3ccccc23)cc1)c1ccn(-c2ccccc2)n1 [Example 226, N-[4-(4-oxo-3,4-dihydrophthalazin-1-yl)phenyl]-1-phenyl-1H-pyrazole-3-carboxamide] | 0.1 to 100 nM | 0.1 to 100 nM
5 | O=C(Nc1ccc(-c2n[nH]c(=O)c3ccccc23)cc1)C1CC(=O)N(c2ccccc2)C1 (stereo not drawn) [Example 217, 5-oxo-N-[4-(4-oxo-3,4-dihydrophthalazin-1-yl)phenyl]-1-phenylpyrrolidine-3-carboxamide] | 101 to 1000 nM | 1000 to 50000 nM
6 | CCOc1cc(NC(=O)c2nn(CC(C)(C)O)c3ccccc23)ccc1-c1n[nH]c(=O)c2ccccc12 [Example 346, N-(3-Ethoxy-4-(4-oxo-3,4-dihydrophthalazin-1-yl)phenyl)-1-(2-hydroxy-2-methylpropyl)-1H-indazole-3-carboxamide] | 101 to 1000 nM | 1000 to 50000 nM
7 | COCCOc1ccn2ncc(C(=O)Nc3ccc(-c4n[nH]c(=O)c5ccccc45)cc3)c2c1 [Example 184, 5-(2-methoxyethoxy)-N-[4-(4-oxo-3,4-dihydrophthalazin-1-yl)phenyl]pyrazolo[1,5-a]pyridine-3-carboxamide] | 0.1 to 100 nM | 0.1 to 100 nM
8 | CN1CC(Cn2nc(C(=O)Nc3ccc(-c4n[nH]c(=O)c5ccccc45)cc3)c3ccccc32)C1 [Example 340, 1-((1-Methylazetidin-3-yl)methyl)-N-(4-(4-oxo-3,4-dihydrophthalazin-1-yl)phenyl)-1H-indazole-3-carboxamide] | 0.1 to 100 nM | 0.1 to 100 nM
9 | O=C(Cc1ccc(-c2n[nH]c(=O)c3ccccc23)cc1)N1CCN(c2ncccn2)CC1 [Example 15, 4-(4-{2-oxo-2-[4-(pyrimidin-2-yl)piperazin-1-yl]ethyl}phenyl)-1,2-dihydrophthalazin-1-one] | 1000 to 50000 nM | 1000 to 50000 nM
10 | O=C(Nc1ccc(-c2n[nH]c(=O)c3ccccc23)cc1)c1cnn(C2CCNC2)c1 (stereo not drawn) [Example 397, N-(4-(4-Oxo-3,4-dihydrophthalazin-1-yl)phenyl)-1-(pyrrolidin-3-yl)-1H-pyrazole-4-carboxamide] | 101 to 1000 nM | 1000 to 50000 nM
11 | O=C(Nc1ccc(-c2n[nH]c(=O)c3ccccc23)cc1)c1cn2ccncc2n1 [Example 133, N-[4-(4-oxo-3,4-dihydrophthalazin-1-yl)phenyl]imidazo[1,2-a]pyrazine-2-carboxamide] | 0.1 to 100 nM | 101 to 1000 nM
12 | CC(C)(O)Cn1cc(C(=O)Nc2ccc(-c3n[nH]c(=O)c4ccccc34)cc2)cn1 [Example 377, 1-(2-Hydroxy-2-methylpropyl)-N-(4-(4-oxo-3,4-dihydrophthalazin-1-yl)phenyl)-1H-pyrazole-4-carboxamide] | 0.1 to 100 nM | 1000 to 50000 nM
13 | O=C(Nc1ccc(-c2n[nH]c(=O)c3ccccc23)cc1)c1ccccc1 [Example 67, N-[4-(4-oxo-3,4-dihydrophthalazin-1-yl)phenyl]benzamide] | 0.1 to 100 nM | 101 to 1000 nM
14 | COc1ccc2c(=O)[nH]cc(-c3ccc(NC(=O)N4CCc5ccccc54)cc3C)c2c1 [Example 323, N-(4-(6-Methoxy-1-oxo-1,2-dihydroisoquinolin-4-yl)-3-methylphenyl)indoline-1-carboxamide] | 0.1 to 100 nM | 0.1 to 100 nM
15 | CC(C(=O)N1CCc2ccccc21)c1ccc(-c2n[nH]c(=O)c3ccccc23)cc1 (stereo not drawn) [Example 42, 4-(4-(1-(Indolin-1-yl)-1-oxopropan-2-yl)phenyl)phthalazin-1(2H)-one] | 0.1 to 100 nM | 1000 to 50000 nM
16 | Cn1c(C(=O)Nc2ccc(-c3c[nH]c(=O)c4ccccc34)cc2)cc2ccccc21 [Example 248, 1-Methyl-N-(4-(1-oxo-1,2-dihydroisoquinolin-4-yl)phenyl)-1H-indole-2-carboxamide] | 0.1 to 100 nM | 101 to 1000 nM
17 | COc1ccccc1-n1cc(C(=O)Nc2ccc(-c3n[nH]c(=O)c4ccccc34)cc2)cn1 [Example 197, 1-(2-methoxyphenyl)-N-[4-(4-oxo-3,4-dihydrophthalazin-1-yl)phenyl]-1H-pyrazole-4-carboxamide] | 0.1 to 100 nM | 0.1 to 100 nM

Row | SMILES | IC50 (ROCK2) | IC50 (ROCK1)
18 | O=C(Nc1ccc(-c2n[nH]c(=O)c3ccccc23)cc1)c1cnn2ccccc12 [Example 103, N-[4-(4-oxo-3,4-dihydrophthalazin-1-yl)phenyl]pyrazolo[1,5-a]pyridine-3-carboxamide] | 0.1 to 100 nM | 0.1 to 100 nM
19 | COc1ccc2c(c1)CN(C(=O)Oc1ccc(-c3c[nH]c(=O)c4ccc(OC)cc34)cc1)C2 [Example 267, 4-(6-Methoxy-1-oxo-1,2-dihydroisoquinolin-4-yl)phenyl 5-methoxyisoindoline-2-carboxylate] | 0.1 to 100 nM | 101 to 1000 nM
20 | O=C(Cc1ccc(-c2n[nH]c(=O)c3ccccc23)cc1)N1CCc2cc(OC(F)(F)F)cc(Br)c21 [Example 253, 4-(4-(2-(7-Bromo-5-(trifluoromethoxy)indolin-1-yl)-2-oxoethyl)phenyl)phthalazin-1(2H)-one] | 101 to 1000 nM | 1000 to 50000 nM
21 | CN1CCc2nc(C(=O)Nc3ccc(-c4n[nH]c(=O)c5ccccc45)cc3)sc2C1 [Example 51, 5-methyl-N-[4-(4-oxo-3,4-dihydrophthalazin-1-yl)phenyl]-4H,5H,6H, 7H-[1,3]thiazolo[5,4-c] pyridine-2-carboxamide] | 0.1 to 100 nM | 1000 to 50000 nM
22 | O=C(Nc1ccc(-c2n[nH]c(=O)c3ccccc23)cc1)c1n[nH]c2c1C(=O)CCC2 [Example 109, 4-oxo-N-[4-(4-oxo-3,4-dihydrophthalazin-1-yl)phenyl]-4,5,6,7-tetrahydro-1H-indazole-3-carboxamide] | 0.1 to 100 nM | 0.1 to 100 nM
23 | COc1cccc(-n2cc(C(=O)Nc3ccc(-c4n[nH]c(=O)c5ccccc45)cc3)cn2)c1 [Example 203, 1-(3-methoxyphenyl)-N-[4-(4-oxo-3,4-dihydrophthalazin-1-yl)phenyl]-1H-pyrazole-4-carboxamide] | 0.1 to 100 nM | 101 to 1000 nM
24 | O=C(Nc1ccc(-c2n[nH]c(=O)c3ccccc23)c(Cl)c1)c1nn(CC2CCOC2)c2ccccc12 (stereo not drawn) [Example 319, N-[3-chloro-4-(4-oxo-3,4-dihydrophthalazin-1-yl)phenyl]-1-(oxolan-3-ylmethyl)-1H-indazole-3-carboxamide] | 0.1 to 100 nM | 0.1 to 100 nM
25 | O=C(Nc1ccc(-c2n[nH]c(=O)c3ccccc23)cc1)c1cnn2cc(OCCN3CCCC3)ccc12 [Example 176, N-[4-(4-oxo-3,4-dihydrophthalazin-1-yl)phenyl]-6-[2-(pyrrolidin-1-yl)ethoxy]pyrazolo[1,5-a]pyridine-3-carboxamide] | 0.1 to 100 nM | 0.1 to 100 nM
26 | COc1cc2cc(C(=O)Nc3ccc(-c4n[nH]c(=O)c5ccccc45)cc3)oc2cc1F [Example 180, 6-fluoro-5-methoxy-N-[4-(4-oxo-3,4-dihydrophthalazin-1-yl)phenyl]-1-benzofuran-2-carboxamide] | 0.1 to 100 nM | 0.1 to 100 nM
27 | O=C(Nc1ccc(-c2n[nH]c(=O)c3ccccc23)cc1)c1nn(CC2CCN(C(=O)OCC(F)(F)F)CC2)c2ccccc12 [Example 351, 2,2,2-Trifluoroethyl 4-[(3-{[4-(4-oxo-3,4-dihydrophthalazin-1-yl)phenyl]carbamoyl}-1H-indazol-1-yl)methyl]piperidine-1-carboxylate] | 0.1 to 100 nM | 0.1 to 100 nM
28 | Cn1c(C(=O)Nc2ccc(-c3n[nH]c(=O)c4ccccc34)cc2)cc2ccccc21 [Example 90, 1-methyl-N-[4-(4-oxo-3,4-dihydrophthalazin-1-yl)phenyl]-1H-indole-2-carboxamide] | 0.1 to 100 nM | 101 to 1000 nM
29 | CC(C)(C)n1cc(NC(=O)c2ccncc2)c(C(=O)Nc2ccc(-c3n[nH]c(=O)c4ccccc34)cc2)n1 [Example 234, N-(1-tert-butyl-3-{[4-(4-oxo-3,4-dihydrophthalazin-1-yl)phenyl]carbamoyl}-1H-pyrazol-4-yl)pyridine-4-carboxamide] | 0.1 to 100 nM | 101 to 1000 nM
30 | CC(C)(O)COc1ccc2c(c1)N(C(=O)Cc1ccc(-c3c[nH]c(=O)c4ccccc34)cc1)CC2 [Example 288, 4-(4-(2-(6-(2-Hydroxy-2-methylpropoxy)indolin-1-yl)-2-oxoethyl)phenyl)isoquinolin-1(2H)-one] | 0.1 to 100 nM | 0.1 to 100 nM
31 | CN(C(=O)Cc1ccc(-c2n[nH]c(=O)c3ccccc23)cc1)c1ccccc1 [Example 22, N-methyl-2-[4-(4-oxo-3,4-dihydrophthalazin-1-yl)phenyl]-N-phenylacetamide] | 1000 to 50000 nM | 1000 to 50000 nM
32 | COC(=O)CCn1nc(C(=O)Nc2ccc(-c3n[nH]c(=O)c4ccccc34)cc2)c2ccccc21 [Example 332, Methyl 3-(3-((4-(4-oxo-3,4-dihydrophthalazin-1-yl)phenyl)carbamoyl)-1H-indazol-1-yl)propanoate] | 0.1 to 100 nM | 0.1 to 100 nM
33 | COc1ccc2c(C(=O)Nc3ccc(-c4n[nH]c(=O)c5ccccc45)cc3)cnn2c1 [Example 141, 6-methoxy-N-[4-(4-oxo-3,4-dihydrophthalazin-1-yl)phenyl]pyrazolo[1,5-a]pyridine-3-carboxamide] | 0.1 to 100 nM | 0.1 to 100 nM
